Measured values taken from ChEMBL document CHEMBL3526086, “Identification of the oxidative and conjugative enzymes involved in the biotransformation of brivanib” (Drug Metab Dispos, 2012).

Experiments:
Assay type in all cases: ADME
[1] = target: Cytochrome P450 1A1 (Homo sapiens, UniProt P04798); assay: Drug metabolism assessed as human CYP1A1-mediated (R)-1-(4-(4-fluoro-2-(hydroxymethyl)-1H-indol-5-yloxy)-5-methylpyrrolo[1,2-f][1,2,4]triazin-6-yloxy)propan-2-ol formation at 2 and 20 uM for 20 mins by LC/MS analysis in presence of NADPH; conditions: recombinant enzyme
Sequence of Cytochrome P450 1A1 (P04798 whole entry): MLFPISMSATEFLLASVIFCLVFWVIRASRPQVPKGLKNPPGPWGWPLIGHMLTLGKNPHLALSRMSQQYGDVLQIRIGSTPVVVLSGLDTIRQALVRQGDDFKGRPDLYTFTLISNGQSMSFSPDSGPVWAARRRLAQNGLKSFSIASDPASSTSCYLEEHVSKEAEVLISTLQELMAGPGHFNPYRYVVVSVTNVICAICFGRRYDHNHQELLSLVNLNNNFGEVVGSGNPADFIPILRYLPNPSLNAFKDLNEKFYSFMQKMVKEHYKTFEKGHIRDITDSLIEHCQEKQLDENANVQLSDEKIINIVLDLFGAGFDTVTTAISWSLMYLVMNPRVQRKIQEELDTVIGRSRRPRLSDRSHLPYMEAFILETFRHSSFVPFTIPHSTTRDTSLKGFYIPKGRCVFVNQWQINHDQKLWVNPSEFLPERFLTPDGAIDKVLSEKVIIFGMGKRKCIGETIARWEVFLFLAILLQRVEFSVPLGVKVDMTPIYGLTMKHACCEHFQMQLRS

[2] = target: T1, Cytochrome P450 2B6 (Homo sapiens, UniProt P20813); assay: Drug metabolism in human liver microsomes assessed as 50 uM orphenadrine-mediated inhibition of CYP2B6-mediated (R)-1-(4-(4-fluoro-2-(hydroxymethyl)-1H-indol-5-yloxy)-5-methylpyrrolo[1,2-f][1,2,4]triazin-6-yloxy)propan-2-ol formation at 2 and 20 uM for 30 mins by LC/MS analysis; conditions: 0.5 h
T1 sequence (P20813 whole entry): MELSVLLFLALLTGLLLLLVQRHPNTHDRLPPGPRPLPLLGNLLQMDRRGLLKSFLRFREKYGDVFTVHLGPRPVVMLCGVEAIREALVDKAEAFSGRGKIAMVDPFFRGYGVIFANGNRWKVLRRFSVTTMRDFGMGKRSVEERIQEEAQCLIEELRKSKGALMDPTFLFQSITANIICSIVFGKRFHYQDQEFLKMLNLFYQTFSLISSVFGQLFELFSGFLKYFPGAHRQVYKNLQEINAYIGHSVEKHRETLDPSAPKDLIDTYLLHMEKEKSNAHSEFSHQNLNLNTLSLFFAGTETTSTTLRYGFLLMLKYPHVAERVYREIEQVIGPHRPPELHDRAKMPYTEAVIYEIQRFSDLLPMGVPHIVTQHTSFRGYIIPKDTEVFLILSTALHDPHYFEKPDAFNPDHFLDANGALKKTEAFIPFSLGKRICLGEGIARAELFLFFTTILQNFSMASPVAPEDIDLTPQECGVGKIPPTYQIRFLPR

[3] = test system: Liver microsome; assay: Drug level in human liver microsomes assessed as compound formation treated with 2 uM [14C]brivanib alaninate for 60 mins by LC/MS analysis; conditions: 1 h
[4] = target: Cytochrome P450 2C19 (Homo sapiens, UniProt P33261); assay: Drug metabolism assessed as human CYP2C19-mediated (R)-1-(4-(4-fluoro-2-(hydroxymethyl)-1H-indol-5-yloxy)-5-methylpyrrolo[1,2-f][1,2,4]triazin-6-yloxy)propan-2-ol formation at 2 and 20 uM for 20 mins by LC/MS analysis in presence of NADPH; conditions: recombinant enzyme
Sequence of Cytochrome P450 2C19 (P33261 whole entry): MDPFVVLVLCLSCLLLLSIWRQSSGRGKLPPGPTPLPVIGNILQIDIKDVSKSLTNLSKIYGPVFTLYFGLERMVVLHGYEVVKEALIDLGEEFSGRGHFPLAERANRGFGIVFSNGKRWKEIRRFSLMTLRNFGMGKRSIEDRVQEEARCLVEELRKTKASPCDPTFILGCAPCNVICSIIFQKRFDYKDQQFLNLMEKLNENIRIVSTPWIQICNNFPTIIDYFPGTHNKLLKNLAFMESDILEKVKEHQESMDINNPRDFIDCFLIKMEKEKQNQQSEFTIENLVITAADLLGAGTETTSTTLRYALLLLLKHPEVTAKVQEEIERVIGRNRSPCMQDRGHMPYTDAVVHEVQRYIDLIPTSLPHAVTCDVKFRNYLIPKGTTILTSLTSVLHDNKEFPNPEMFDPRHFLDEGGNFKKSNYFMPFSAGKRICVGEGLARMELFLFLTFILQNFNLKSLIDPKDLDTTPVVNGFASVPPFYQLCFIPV

[5] = target: T2, Cytochrome P450 2A6 (Homo sapiens, UniProt P11509); assay: Drug metabolism in human liver microsomes assessed as monoclonal antibody-mediated inhibition of CYP2A6-mediated (R)-1-(4-(4-fluoro-2-(hydroxymethyl)-1H-indol-5-yloxy)-5-methylpyrrolo[1,2-f][1,2,4]triazin-6-yloxy)propan-2-ol formation at 2 and 20 uM for 30 mins by LC/MS analysis; conditions: 0.5 h
T2 sequence (P11509 whole entry): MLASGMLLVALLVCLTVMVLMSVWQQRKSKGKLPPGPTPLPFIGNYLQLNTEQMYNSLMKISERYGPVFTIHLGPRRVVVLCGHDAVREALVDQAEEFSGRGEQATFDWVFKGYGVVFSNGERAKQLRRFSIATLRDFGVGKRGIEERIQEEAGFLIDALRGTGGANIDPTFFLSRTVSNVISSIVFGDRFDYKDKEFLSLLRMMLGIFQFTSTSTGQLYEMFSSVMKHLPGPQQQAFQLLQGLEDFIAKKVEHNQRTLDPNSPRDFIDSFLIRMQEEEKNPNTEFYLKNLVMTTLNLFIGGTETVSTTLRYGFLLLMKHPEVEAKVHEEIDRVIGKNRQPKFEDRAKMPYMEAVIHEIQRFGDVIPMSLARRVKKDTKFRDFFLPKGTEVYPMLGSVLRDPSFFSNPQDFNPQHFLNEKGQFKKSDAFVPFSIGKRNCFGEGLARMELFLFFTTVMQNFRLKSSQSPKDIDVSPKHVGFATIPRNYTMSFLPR

[6] = target: Sulfotransferase 1A3 (Homo sapiens, UniProt P0DMM9); assay: Drug metabolism assessed as human SULT1A3-mediated (R)-1-(4-(4-fluoro-2-methyl-1H-indol-5-yloxy)-5-methylpyrrolo[1,2-f][1,2,4]triazin-6-yloxy)propane-2-sulfonic acid formation at 2 and 20 uM for 30 mins by LC/MS analysis in presence of PAPS; conditions: 0.5 h
Sequence of Sulfotransferase 1A3 (P0DMM9 whole entry): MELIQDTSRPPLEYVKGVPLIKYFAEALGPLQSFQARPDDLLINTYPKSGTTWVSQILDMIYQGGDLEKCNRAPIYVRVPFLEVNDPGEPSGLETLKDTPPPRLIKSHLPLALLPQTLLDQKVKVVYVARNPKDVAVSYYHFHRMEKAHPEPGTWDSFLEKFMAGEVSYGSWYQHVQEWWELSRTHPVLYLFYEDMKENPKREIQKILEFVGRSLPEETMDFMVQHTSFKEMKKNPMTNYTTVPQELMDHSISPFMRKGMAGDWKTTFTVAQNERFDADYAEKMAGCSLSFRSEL

[7] = target: T2, Cytochrome P450 2A6; assay: Drug metabolism in human liver microsomes assessed as 2 uM tranylcypromine-mediated inhibition of CYP2A6-mediated (R)-1-(4-(4-fluoro-2-(hydroxymethyl)-1H-indol-5-yloxy)-5-methylpyrrolo[1,2-f][1,2,4]triazin-6-yloxy)propan-2-ol formation at 2 and 20 uM for 30 mins by LC/MS analysis; conditions: 0.5 h
[8] = target: T3, Cytochrome P450 2C8 (Homo sapiens, UniProt P10632); assay: Drug metabolism assessed as human CYP2C8-mediated (R)-1-(4-(4-fluoro-2-(hydroxymethyl)-1H-indol-5-yloxy)-5-methylpyrrolo[1,2-f][1,2,4]triazin-6-yloxy)propan-2-ol formation at 2 and 20 uM for 20 mins by LC/MS analysis in presence of NADPH; conditions: recombinant enzyme
T3 sequence (P10632 whole entry): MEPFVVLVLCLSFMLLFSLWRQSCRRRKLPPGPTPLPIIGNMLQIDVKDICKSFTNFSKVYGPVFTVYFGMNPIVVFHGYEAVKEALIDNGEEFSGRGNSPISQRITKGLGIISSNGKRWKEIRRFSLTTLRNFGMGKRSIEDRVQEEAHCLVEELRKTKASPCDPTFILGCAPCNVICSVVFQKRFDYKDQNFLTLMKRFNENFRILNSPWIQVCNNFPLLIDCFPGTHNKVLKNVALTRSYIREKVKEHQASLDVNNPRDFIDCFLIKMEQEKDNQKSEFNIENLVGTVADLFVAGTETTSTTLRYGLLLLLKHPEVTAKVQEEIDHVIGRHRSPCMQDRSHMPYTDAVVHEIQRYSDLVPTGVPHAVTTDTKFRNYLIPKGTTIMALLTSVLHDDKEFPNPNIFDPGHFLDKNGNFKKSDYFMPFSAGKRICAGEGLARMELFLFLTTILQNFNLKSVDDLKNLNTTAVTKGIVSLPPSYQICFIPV

[9] = target: Cytochrome P450 2C9 (Homo sapiens, UniProt P11712); assay: Drug metabolism assessed as human CYP2C9-mediated (R)-1-(4-(4-fluoro-2-(hydroxymethyl)-1H-indol-5-yloxy)-5-methylpyrrolo[1,2-f][1,2,4]triazin-6-yloxy)propan-2-ol formation at 2 and 20 uM for 20 mins by LC/MS analysis in presence of NADPH; conditions: recombinant enzyme
Sequence of Cytochrome P450 2C9 (P11712 whole entry): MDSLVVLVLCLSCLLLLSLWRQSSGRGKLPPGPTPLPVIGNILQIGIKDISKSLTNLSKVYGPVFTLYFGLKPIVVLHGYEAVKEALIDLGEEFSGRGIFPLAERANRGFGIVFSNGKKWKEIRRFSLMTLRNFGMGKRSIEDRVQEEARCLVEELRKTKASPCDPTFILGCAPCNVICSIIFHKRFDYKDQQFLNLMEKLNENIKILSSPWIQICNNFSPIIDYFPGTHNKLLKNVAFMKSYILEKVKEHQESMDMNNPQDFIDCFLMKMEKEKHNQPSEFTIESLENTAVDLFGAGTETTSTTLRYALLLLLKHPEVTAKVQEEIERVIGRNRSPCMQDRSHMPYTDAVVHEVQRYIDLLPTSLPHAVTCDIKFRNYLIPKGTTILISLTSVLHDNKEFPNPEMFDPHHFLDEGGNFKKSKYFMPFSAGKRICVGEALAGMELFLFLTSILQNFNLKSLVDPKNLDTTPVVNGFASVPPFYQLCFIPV

[10] = target: Sulfotransferase 1B1 (Homo sapiens, UniProt O43704); assay: Drug metabolism assessed as human SULT1B1-mediated (R)-1-(4-(4-fluoro-2-methyl-1H-indol-5-yloxy)-5-methylpyrrolo[1,2-f][1,2,4]triazin-6-yloxy)propane-2-sulfonic acid formation at 2 and 20 uM for 30 mins by LC/MS analysis in presence of PAPS; conditions: 0.5 h
Sequence of Sulfotransferase 1B1 (O43704 whole entry): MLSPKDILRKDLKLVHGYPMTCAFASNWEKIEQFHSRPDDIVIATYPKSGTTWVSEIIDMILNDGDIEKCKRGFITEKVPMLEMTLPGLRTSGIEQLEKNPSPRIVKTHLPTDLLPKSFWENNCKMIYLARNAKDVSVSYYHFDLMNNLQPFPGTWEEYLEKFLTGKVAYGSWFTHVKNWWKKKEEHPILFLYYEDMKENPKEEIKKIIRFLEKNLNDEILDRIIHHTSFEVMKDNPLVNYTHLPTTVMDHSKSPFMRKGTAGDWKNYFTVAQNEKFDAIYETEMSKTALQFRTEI

[11] = target: T1, Cytochrome P450 2B6; assay: Drug metabolism assessed as human CYP2B6-mediated (R)-1-(4-(4-fluoro-2-(hydroxymethyl)-1H-indol-5-yloxy)-5-methylpyrrolo[1,2-f][1,2,4]triazin-6-yloxy)propan-2-ol formation at 2 and 20 uM for 20 mins by LC/MS analysis in presence of NADPH; conditions: recombinant enzyme

Measured: Drug metabolism

Cc1cc2c(F)c(Oc3ncnn4cc(OC[C@@H](C)O)c(C)c34)ccc2[nH]1 [BRIVANIB]
metabolite_detected: all assays above
